Experimental data taken from PubChem BioAssay AID1963853 (Molecular Pharmacology Branch, DTP, NCI, 2024).

Test system: 266295-075-R-J1-PDC spheroid viability
Assay: Anticancer human tumor 266295-075-R-J1-PDC patient-derived head and neck squamous carcinoma cell line growth inhibition [POLQ]
Details: spheroids with HUVEC and MSC; for IC50: curve of first compound; for viability, T/C: stronger effect = lower value
In short: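 Growth inhibition in 3D: complex spheroids (tumor PDC, HUVEC, MSC) treated with POLQ inhibitor combinations; where Cmax unknown, highest tested concentration 10 microM, except SN-38 at 1 microM.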

[1] = second compound 0.0316 µM, first compound 0.0316 µM
[2] = second compound 0.0316 µM, first compound 0.1 µM
[3] = second compound 0.0316 µM, first compound 0.316 µM
[4] = second compound 0.0316 µM, first compound 1 µM
[5] = second compound 0.0316 µM, first compound 3.16 µM
[6] = second compound 0.0316 µM, first compound 10 µM
[7] = second compound 0.1 µM, first compound 0.0316 µM
[8] = second compound 0.1 µM, first compound 0.1 µM
[9] = second compound 0.1 µM, first compound 0.316 µM
[10] = second compound 0.1 µM, first compound 1 µM
[11] = second compound 0.1 µM, first compound 3.16 µM
[12] = second compound 0.1 µM, first compound 10 µM
[13] = second compound 0.316 µM, first compound 0.0316 µM
[14] = second compound 0.316 µM, first compound 0.1 µM
[15] = second compound 0.316 µM, first compound 0.316 µM
[16] = second compound 0.316 µM, first compound 1 µM
[17] = second compound 0.316 µM, first compound 3.16 µM
[18] = second compound 0.316 µM, first compound 10 µM
[19] = second compound 1 µM, first compound 0.0316 µM
[20] = second compound 1 µM, first compound 0.1 µM
[21] = second compound 1 µM, first compound 0.316 µM
[22] = second compound 1 µM, first compound 1 µM
[23] = second compound 1 µM, first compound 3.16 µM
[24] = second compound 1 µM, first compound 10 µM
[25] = second compound 3.16 µM, first compound 0.0316 µM
[26] = second compound 3.16 µM, first compound 0.1 µM
[27] = second compound 3.16 µM, first compound 0.316 µM
[28] = second compound 3.16 µM, first compound 1 µM
[29] = second compound 3.16 µM, first compound 3.16 µM
[30] = second compound 3.16 µM, first compound 10 µM
[31] = second compound 10 µM, first compound 0.0316 µM
[32] = second compound 10 µM, first compound 0.1 µM
[33] = second compound 10 µM, first compound 0.316 µM
[34] = second compound 10 µM, first compound 1 µM
[35] = second compound 10 µM, first compound 3.16 µM
[36] = second compound 10 µM, first compound 10 µM
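Further: spheroids exposed to compounds for seven days before readout.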

Compound `CNCc1ccc(-c2[nH]c3cc(F)cc4c3c2CCNC4=O)cc1` + Cc1cccc(N(C)C(=O)C2C(O)CCN2c2nc(C)cc(C(F)(F)F)c2C#N)c1 has an IC50 (second compound 0.0316 µM) of over 10 µM, an IC50 (second compound 0.1 µM) of over 10 µM and an IC50 (second compound 0.316 µM) of over 10 µM. It also gave an IC50 (second compound 1 µM) of over 10 µM, an IC50 (second compound 3.16 µM) of over 10 µM and an IC50 (second compound 10 µM) of over 10 µM. The viability, T/C [1] was 87.1%, the viability, T/C [2] was 117% and the viability, T/C [3] was 87.5%. The viability, T/C [4] was 105%, the viability, T/C [5] was 107% and the viability, T/C [6] was 102%. For the same compound, the viability, T/C [7] was 95.4%, the viability, T/C [8] was 99.8% and the viability, T/C [9] was 88.2%. It also gave a viability, T/C [10] of 84.2%, a viability, T/C [11] of 126% and a viability, T/C [12] of 128%. It also gave a viability, T/C [13] of 104%, a viability, T/C [14] of 111% and a viability, T/C [15] of 104%. The viability, T/C [16] was 99.1%, the viability, T/C [17] was 98.3% and the viability, T/C [18] was 112%. For the same compound, the viability, T/C [19] was 102%, the viability, T/C [20] was 102% and the viability, T/C [21] was 99.9%. For the same compound, the viability, T/C [22] was 93.6%, the viability, T/C [23] was 110% and the viability, T/C [24] was 123%. The viability, T/C [25] was 105%, the viability, T/C [26] was 88.7% and the viability, T/C [27] was 101%. It also gave a viability, T/C [28] of 102%, a viability, T/C [29] of 112% and a viability, T/C [30] of 115%. For the same compound, the viability, T/C [31] was 90.1%, the viability, T/C [32] was 115% and the viability, T/C [33] was 113%. It also gave a viability, T/C [34] of 126%, a viability, T/C [35] of 107% and a viability, T/C [36] of 106%.
Work on `COc1cccc2c1C(=O)c1c(O)c3c(c(O)c1C2=O)CC(O)(C(=O)CO)CC3OC1CC(N)C(O)C(C)O1` (stereo unspecified) + Nc1ccc(C#CCN(C(=O)Cc2ncc(C(F)(F)F)cc2C(F)(F)F)c2ccc(F)cc2)nn1 yielded an IC50 (second compound 0.0316 µM) of 4.42 µM, an IC50 (second compound 0.1 µM) of 3.75 µM and an IC50 (second compound 0.316 µM) of 4.37 µM. It also gave an IC50 (second compound 1 µM) of 4.41 µM, an IC50 (second compound 3.16 µM) of 3.47 µM and an IC50 (second compound 10 µM) of 2.44 µM. For the same compound, the viability, T/C [1] was 93%, the viability, T/C [2] was 106% and the viability, T/C [3] was 74.4%. It also gave a viability, T/C [4] of 83.8%, a viability, T/C [5] of 72.4% and a viability, T/C [6] of 2.33%. It also gave a viability, T/C [7] of 126%, a viability, T/C [8] of 103% and a viability, T/C [9] of 89.2%. It also gave a viability, T/C [10] of 80.5%, a viability, T/C [11] of 71.8% and a viability, T/C [12] of 2.03%. For the same compound, the viability, T/C [13] was 119%, the viability, T/C [14] was 106% and the viability, T/C [15] was 74.2%. It also gave a viability, T/C [16] of 96.6%, a viability, T/C [17] of 72.9% and a viability, T/C [18] of 1.67%. The viability, T/C [19] was 92.7%, the viability, T/C [20] was 84.3% and the viability, T/C [21] was 89.3%. It also gave a viability, T/C [22] of 77.9%, a viability, T/C [23] of 71.8% and a viability, T/C [24] of 2.11%. For the same compound, the viability, T/C [25] was 103%, the viability, T/C [26] was 102% and the viability, T/C [27] was 73.9%. The viability, T/C [28] was 74.2%, the viability, T/C [29] was 64% and the viability, T/C [30] was 1.77%. For the same compound, the viability, T/C [31] was 134%, the viability, T/C [32] was 99.5% and the viability, T/C [33] was 90.1%. For the same compound, the viability, T/C [34] was 73.8%, the viability, T/C [35] was 53.3% and the viability, T/C [36] was 2.11%.
Work on `COc1ccc([C@@H](O)c2cc(-c3ncnc4cc(N5CCOCC5)ccc34)c(F)cc2Cl)nn1` + COC1C(OC(N)=O)C(O)C(Oc2ccc3c(O)c(NC(=O)c4ccc(O)c(CC=C(C)C)c4)c(=O)oc3c2C)OC1(C)C yielded an IC50 (second compound 0.0316 µM) of 3.45 µM, an IC50 (second compound 0.1 µM) of 4.06 µM and an IC50 (second compound 0.316 µM) of 4.31 µM. It also gave an IC50 (second compound 1 µM) of 3.67 µM, an IC50 (second compound 3.16 µM) of 2.48 µM and an IC50 (second compound 10 µM) of 2.74 µM. It also gave a viability, T/C [1] of 97.3%, a viability, T/C [2] of 84.5% and a viability, T/C [3] of 76.6%. For the same compound, the viability, T/C [4] was 62.7%, the viability, T/C [5] was 49.9% and the viability, T/C [6] was 40.7%. The viability, T/C [7] was 107%, the viability, T/C [8] was 105% and the viability, T/C [9] was 73.1%. For the same compound, the viability, T/C [10] was 74.5%, the viability, T/C [11] was 47.5% and the viability, T/C [12] was 43.7%. It also gave a viability, T/C [13] of 104%, a viability, T/C [14] of 85.9% and a viability, T/C [15] of 75.2%. It also gave a viability, T/C [16] of 64.7%, a viability, T/C [17] of 51.8% and a viability, T/C [18] of 43.4%. It also gave a viability, T/C [19] of 91.1%, a viability, T/C [20] of 96% and a viability, T/C [21] of 68.2%. It also gave a viability, T/C [22] of 73.6%, a viability, T/C [23] of 48.2% and a viability, T/C [24] of 39.8%. The viability, T/C [25] was 95.9%, the viability, T/C [26] was 84.6% and the viability, T/C [27] was 83.2%. It also gave a viability, T/C [28] of 62.2%, a viability, T/C [29] of 46% and a viability, T/C [30] of 40.2%. For the same compound, the viability, T/C [31] was 112%, the viability, T/C [32] was 75% and the viability, T/C [33] was 75.2%. The viability, T/C [34] was 63%, the viability, T/C [35] was 50.9% and the viability, T/C [36] was 37.3%.
